Tests used:
Conditions in all cases: 72 h
SK-BR-3 [1] = test system: SK-BR-3
In short: (§1)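 Per-plate normalisation used 0.1 % DMSO and a positive kill control. Breast cancer cell lines (20 µl suspension) were seeded into 384-well plates containing compound at 5 concentrations in 10-fold steps across a compound-specific 10,000-fold range, incubated for 72 h, and read first for CellTox Green fluorescence (485/520 nm), then for CellTiter-Glo luminescence. EC50 was fitted from the dose-response curves and censored at the top concentration.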

CAL-148 [2] = test system: CAL-148
In short: as §1

MDA-MB-436 [3] = test system: MDA-MB-436
In short: as §1

MDA-MB-231 [4] = test system: MDA-MB-231
In short: as §1

CAL-85-1 [5] = test system: CAL-85-1
In short: as §1

MCF-10A [6] = test system: MCF-10A
In short: as §1

BT-549 [7] = test system: BT-549
In short: as §1

HCC1599 [8] = test system: HCC1599
In short: as §1

HCC1143 [9] = test system: HCC1143
In short: as §1

CAL-120 [10] = test system: CAL-120
In short: as §1

Hs578T [11] = test system: Hs578T
In short: as §1

HDQ-P1 [12] = test system: HDQ-P1
In short: as §1

DU-4475 [13] = test system: DU-4475
In short: as §1

HCC1937 = test system: HCC1937
In short: as §1

MDA-MB-453 [14] = test system: MDA-MB-453
In short: as §1

MFM-223 [15] = test system: MFM-223
In short: as §1

BT-474 [16] = test system: BT-474
Method: (§2)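 Drug sensitivity and resistance testing (DSRT) of breast cancer cell lines in 384-well plates, 5 concentrations in 10-fold dilutions over a compound-specific 10,000-fold range. After 72 h, cytotoxicity was read by CellTox Green fluorescence and viability by CellTiter-Glo luminescence (multiplexed), normalised to DMSO and benzethonium chloride controls. EC50 is the inflection point of the fitted dose-response curve (bottom asymptote free, so it can be relative for partial curves) and is censored at the highest tested concentration. Rows with DSS 0 (no meaningful response) were excluded.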

CAL-148 [17] = test system: CAL-148; remark: listed apart in the source
Method: as §2

MDA-MB-231 [18] = test system: MDA-MB-231; remark: listed apart in the source
Method: as §2

CAL-85-1 [19] = test system: CAL-85-1; remark: listed apart in the source
Method: as §2

MCF-10A [20] = test system: MCF-10A; remark: listed apart in the source
Method: as §2

BT-549 [21] = test system: BT-549; remark: listed apart in the source
Method: as §2

HCC1143 [22] = test system: HCC1143; remark: listed apart in the source
Method: as §2

CAL-51 [23] = test system: CAL-51
Method: as §2

CAL-120 [24] = test system: CAL-120; remark: listed apart in the source
Method: as §2

Hs578T [25] = test system: Hs578T; remark: listed apart in the source
Method: as §2

HDQ-P1 [26] = test system: HDQ-P1; remark: listed apart in the source
Method: as §2

DU-4475 [27] = test system: DU-4475; remark: listed apart in the source
Method: as §2

MDA-MB-453 [28] = test system: MDA-MB-453; remark: listed apart in the source
Method: as §2

MFM-223 [29] = test system: MFM-223; remark: listed apart in the source
Method: as §2

CAL-148 [30] = test system: CAL-148; remark: listed apart in the source
In short: (§3)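 After 72 h on 384-well plates pre-loaded with compound in 5 µl medium, breast cancer cell lines seeded in 20 µl were assayed for viability with 2.5 µl CellTiter-Blue at 37 °C for 2 h, read at 560/590 nm. Each plate was quality-checked by Z'-factor and normalised to vehicle and a positive kill control. EC50 comes from the fitted percent-inhibition dose-response curve, censored at the top concentration, and rows scoring zero for drug sensitivity were left out.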

CAL-85-1 [31] = test system: CAL-85-1; remark: listed apart in the source
In short: as §3

CAL-51 [32] = test system: CAL-51; remark: listed apart in the source
In short: as §3

HDQ-P1 [33] = test system: HDQ-P1; remark: listed apart in the source
In short: as §3

DU-4475 [34] = test system: DU-4475; remark: listed apart in the source
In short: as §3

MDA-MB-453 [35] = test system: MDA-MB-453; remark: listed apart in the source
In short: as §3

BT-474 [36] = test system: BT-474; remark: listed apart in the source
In short: as §3

SK-BR-3 [37] = test system: SK-BR-3; remark: listed apart in the source
In short: as §3

MDA-MB-436 [38] = test system: MDA-MB-436; remark: listed apart in the source
In short: as §3

BT-549 [39] = test system: BT-549; remark: listed apart in the source
In short: as §3

HCC1599 [40] = test system: HCC1599; remark: listed apart in the source
In short: as §3

HCC1143 [41] = test system: HCC1143; remark: listed apart in the source
In short: as §3

Hs578T [42] = test system: Hs578T; remark: listed apart in the source
In short: as §3

MDA-MB-468 [43] = test system: MDA-MB-468
In short: as §3

MFM-223 [44] = test system: MFM-223; remark: listed apart in the source
In short: as §3

MDA-MB-436 [45] = test system: MDA-MB-436; remark: listed apart in the source
Method: as §2

HCC1599 [46] = test system: HCC1599; remark: listed apart in the source
Method: as §2

MDA-MB-468 [47] = test system: MDA-MB-468; remark: listed apart in the source
Method: as §2

`CN[C@@H]1C[C@H]2O[C@@](C)([C@@H]1OC)n1c3ccccc3c3c4c(c5c6ccccc6n2c5c31)C(=O)N[C@H]4O` [UCN-01] was tested, and the “EC50, CellTiter-Glo” value (SK-BR-3 [1]) was 57.6 nM, the “EC50, CellTiter-Glo” value (CAL-148 [2]) was 1490 nM and the “EC50, CellTiter-Glo” value (MDA-MB-436 [3]) was 88.1 nM. For the same compound, the “EC50, CellTiter-Glo” value (MDA-MB-231 [4]) was 34.4 nM, the “EC50, CellTiter-Glo” value (CAL-85-1 [5]) was 81.3 nM and the “EC50, CellTiter-Glo” value (MCF-10A [6]) was 45.7 nM. For the same compound, the “EC50, CellTiter-Glo” value (BT-549 [7]) was 118 nM, the “EC50, CellTiter-Glo” value (HCC1599 [8]) was 28 nM and the “EC50, CellTiter-Glo” value (HCC1143 [9]) was 145 nM. For the same compound, the “EC50, CellTiter-Glo” value (CAL-120 [10]) was 43.6 nM, the “EC50, CellTiter-Glo” value (Hs578T [11]) was 36.8 nM and the “EC50, CellTiter-Glo” value (HDQ-P1 [12]) was 217 nM. For the same compound, the “EC50, CellTiter-Glo” value (DU-4475 [13]) was 184 nM, the “EC50, CellTiter-Glo” value (HCC1937) was 193 nM and the “EC50, CellTiter-Glo” value (MDA-MB-453 [14]) was 277 nM. The “EC50, CellTiter-Glo” value (MFM-223 [15]) was 137 nM, the “EC50, CellTox Green” value (BT-474 [16]) was 2470 nM and the “EC50, CellTox Green” value (CAL-148 [17]) was 6850 nM. The “EC50, CellTox Green” value (MDA-MB-231 [18]) was 88.8 nM, the “EC50, CellTox Green” value (CAL-85-1 [19]) was 168 nM and the “EC50, CellTox Green” value (MCF-10A [20]) was 130 nM. For the same compound, the “EC50, CellTox Green” value (BT-549 [21]) was 220 nM, the “EC50, CellTox Green” value (HCC1143 [22]) was 114 nM and the “EC50, CellTox Green” value (CAL-51 [23]) was 63.9 nM. For the same compound, the “EC50, CellTox Green” value (CAL-120 [24]) was 1580 nM, the “EC50, CellTox Green” value (Hs578T [25]) was 266 nM and the “EC50, CellTox Green” value (HDQ-P1 [26]) was 34.3 nM. The “EC50, CellTox Green” value (DU-4475 [27]) was 128 nM, the “EC50, CellTox Green” value (MDA-MB-453 [28]) was 6000 nM and the “EC50, CellTox Green” value (MFM-223 [29]) was 46.3 nM. The “EC50, CellTiter-Blue viability” value (CAL-148 [30]) was 2350 nM, the “EC50, CellTiter-Blue viability” value (CAL-85-1 [31]) was 175 nM and the “EC50, CellTiter-Blue viability” value (CAL-51 [32]) was 140 nM. The “EC50, CellTiter-Blue viability” value (HDQ-P1 [33]) was 59.7 nM, the “EC50, CellTiter-Blue viability” value (DU-4475 [34]) was 212 nM and the “EC50, CellTiter-Blue viability” value (MDA-MB-453 [35]) was 182 nM. The “EC50, CellTiter-Blue viability” value (BT-474 [36]) was 846 nM, the “EC50, CellTiter-Blue viability” value (SK-BR-3 [37]) was 80.2 nM and the “EC50, CellTiter-Blue viability” value (MDA-MB-436 [38]) was 695 nM. For the same compound, the “EC50, CellTiter-Blue viability” value (BT-549 [39]) was 111 nM, the “EC50, CellTiter-Blue viability” value (HCC1599 [40]) was 98.1 nM and the “EC50, CellTiter-Blue viability” value (HCC1143 [41]) was 48.5 nM. The “EC50, CellTiter-Blue viability” value (Hs578T [42]) was 30.6 nM, the “EC50, CellTiter-Blue viability” value (MDA-MB-468 [43]) was 105 nM and the “EC50, CellTiter-Blue viability” value (MFM-223 [44]) was 355 nM.

For `CCC1=C[C@@H]2CN(C1)Cc1c([nH]c3ccccc13)[C@@](C(=O)OC)(c1cc3c(cc1OC)N(C)[C@H]1[C@@](O)(C(=O)OC)[C@H](OC(C)=O)[C@]4(CC)C=CCN5CC[C@]31[C@@H]54)C2` [Vinorelbine], the “EC50, CellTiter-Glo” value (SK-BR-3 [1]) was 3.1 nM, the “EC50, CellTiter-Glo” value (CAL-148 [2]) was 35.7 nM and the “EC50, CellTiter-Glo” value (MDA-MB-436 [3]) was 42.9 nM. The “EC50, CellTiter-Glo” value (MDA-MB-231 [4]) was 119 nM, the “EC50, CellTiter-Glo” value (CAL-85-1 [5]) was 24.5 nM and the “EC50, CellTiter-Glo” value (MCF-10A [6]) was 27.3 nM. The “EC50, CellTiter-Glo” value (BT-549 [7]) was 26.3 nM, the “EC50, CellTiter-Glo” value (HCC1599 [8]) was 206 nM and the “EC50, CellTiter-Glo” value (HCC1143 [9]) was 23.5 nM. For the same compound, the “EC50, CellTiter-Glo” value (CAL-120 [10]) was 24.1 nM, the “EC50, CellTiter-Glo” value (Hs578T [11]) was 69.7 nM and the “EC50, CellTiter-Glo” value (HDQ-P1 [12]) was 40.6 nM. For the same compound, the “EC50, CellTiter-Glo” value (DU-4475 [13]) was 1510 nM, the “EC50, CellTiter-Glo” value (HCC1937) was 29.5 nM and the “EC50, CellTiter-Glo” value (MDA-MB-453 [14]) was 12.6 nM. The “EC50, CellTiter-Glo” value (MFM-223 [15]) was 76.8 nM, the “EC50, CellTox Green” value (BT-474 [16]) was 85.9 nM and the “EC50, CellTox Green” value (CAL-148 [17]) was 42.5 nM. The “EC50, CellTox Green” value (MDA-MB-436 [45]) was 273 nM, the “EC50, CellTox Green” value (MDA-MB-231 [18]) was 263 nM and the “EC50, CellTox Green” value (CAL-85-1 [19]) was 23.2 nM. For the same compound, the “EC50, CellTox Green” value (MCF-10A [20]) was 13.7 nM, the “EC50, CellTox Green” value (BT-549 [21]) was 492 nM and the “EC50, CellTox Green” value (HCC1599 [46]) was 356 nM. The “EC50, CellTox Green” value (CAL-51 [23]) was 45.2 nM, the “EC50, CellTox Green” value (CAL-120 [24]) was 1500 nM and the “EC50, CellTox Green” value (Hs578T [25]) was 95.4 nM. For the same compound, the “EC50, CellTox Green” value (MDA-MB-468 [47]) was 3510 nM, the “EC50, CellTox Green” value (MFM-223 [29]) was 5.52 nM and the “EC50, CellTiter-Blue viability” value (CAL-148 [30]) was 49.1 nM. The “EC50, CellTiter-Blue viability” value (CAL-85-1 [31]) was 23.1 nM, the “EC50, CellTiter-Blue viability” value (CAL-51 [32]) was 116 nM and the “EC50, CellTiter-Blue viability” value (HDQ-P1 [33]) was 74 nM. The “EC50, CellTiter-Blue viability” value (DU-4475 [34]) was 304 nM, the “EC50, CellTiter-Blue viability” value (MDA-MB-453 [35]) was 9.96 nM and the “EC50, CellTiter-Blue viability” value (BT-474 [36]) was 33.5 nM. The “EC50, CellTiter-Blue viability” value (SK-BR-3 [37]) was 30.9 nM, the “EC50, CellTiter-Blue viability” value (MDA-MB-436 [38]) was 72.8 nM and the “EC50, CellTiter-Blue viability” value (BT-549 [39]) was 37.8 nM. The “EC50, CellTiter-Blue viability” value (HCC1599 [40]) was 176 nM, the “EC50, CellTiter-Blue viability” value (HCC1143 [41]) was 41.8 nM and the “EC50, CellTiter-Blue viability” value (Hs578T [42]) was 39.8 nM. The “EC50, CellTiter-Blue viability” value (MDA-MB-468 [43]) was 33.5 nM and the “EC50, CellTiter-Blue viability” value (MFM-223 [44]) was 44.4 nM.

— the supplement of paper PMC4862054
